# According to PubChem BioAssay (NCI):
#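 Five compound concentrations were applied to cells in 96-well plates for 48 hours; endpoints were derived by simple linear interpolation of the resulting dose-response curve. GI50 = concentration required for 50% inhibition of growth. TGI: total growth inhibition.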
# Tests used:
# Experiment in all cases: inhibition of tumour cell growth, NCI panel, 48 h
# A498 renal = tested on: A498 renal
# HCC-2998 colon = tested on: HCC-2998 colon
# U251 CNS = tested on: U251 CNS
# UACC-62 melanoma = tested on: UACC-62 melanoma
# MDA-MB-435 = tested on: MDA-MB-435
# LOX IMVI melanoma = tested on: LOX IMVI melanoma
# UO-31 renal = tested on: UO-31 renal
# T-47D breast = tested on: T-47D breast
# SK-OV-3 ovarian = tested on: SK-OV-3 ovarian
# RPMI-8226 leukemia = tested on: RPMI-8226 leukemia
# SF-268 CNS = tested on: SF-268 CNS
# UACC-257 melanoma = tested on: UACC-257 melanoma
# SNB-75 CNS = tested on: SNB-75 CNS
# K-562 leukemia = tested on: K-562 leukemia
# HCT-116 colon = tested on: HCT-116 colon
# BT-549 breast = tested on: BT-549 breast
# M14 melanoma = tested on: M14 melanoma
# 786-0 renal = tested on: 786-0 renal
# MOLT-4 leukemia = tested on: MOLT-4 leukemia
# HCT-15 colon = tested on: HCT-15 colon
# ACHN renal = tested on: ACHN renal
# MDA-MB-231 breast = tested on: MDA-MB-231 breast
# HOP-92 NSCLC = tested on: HOP-92 NSCLC
# CAKI-1 renal = tested on: CAKI-1 renal
# HOP-62 NSCLC = tested on: HOP-62 NSCLC
# PC-3 prostate = tested on: PC-3 prostate
# RXF 393 renal = tested on: RXF 393 renal
# NCI-H226 lung = tested on: NCI-H226 lung
# SNB-19 CNS = tested on: SNB-19 CNS
# SK-MEL-5 melanoma = tested on: SK-MEL-5 melanoma
# OVCAR-4 ovarian = tested on: OVCAR-4 ovarian
# NCI/ADR-RES ovarian = tested on: NCI/ADR-RES ovarian
# SF-295 CNS = tested on: SF-295 CNS
# OVCAR-8 ovarian = tested on: OVCAR-8 ovarian
# MALME-3M melanoma = tested on: MALME-3M melanoma
# COLO 205 colon = tested on: COLO 205 colon
# SN12C renal = tested on: SN12C renal
# SW-620 colon = tested on: SW-620 colon
# KM12 colon = tested on: KM12 colon
# SK-MEL-28 melanoma = tested on: SK-MEL-28 melanoma
# SK-MEL-2 melanoma = tested on: SK-MEL-2 melanoma
# DU-145 prostate = tested on: DU-145 prostate
# OVCAR-5 ovarian = tested on: OVCAR-5 ovarian
# SF-539 CNS = tested on: SF-539 CNS
# CCRF-CEM leukemia = tested on: CCRF-CEM leukemia
# OVCAR-3 ovarian = tested on: OVCAR-3 ovarian
# HS 578T breast = tested on: HS 578T breast
# HT29 colon = tested on: HT29 colon
# EKVX NSCLC = tested on: EKVX NSCLC
# IGROV1 ovarian = tested on: IGROV1 ovarian
# A549 NSCLC = tested on: A549 NSCLC
# TK-10 renal = tested on: TK-10 renal
# MCF7 breast = tested on: MCF7 breast
# NCI-H460 lung = tested on: NCI-H460 lung
# SR leukemia = tested on: SR leukemia
# NCI-H522 lung = tested on: NCI-H522 lung
# NCI-H23 lung = tested on: NCI-H23 lung
# HL-60(TB) leukemia = tested on: HL-60(TB) leukemia
smiles,measurement,setting,value
O=C1c2[nH]cc(CNC3CN4CCC3CC4)c2C(=O)c2c1c(O)c1ccccc1c2O (stereo not given),TGI,A498 renal,1.72 µM
same,GI50,HCC-2998 colon,0.187 µM
same,TGI,HCC-2998 colon,0.721 µM
same,GI50,U251 CNS,1.21 µM
same,TGI,U251 CNS,2.58 µM
same,GI50,UACC-62 melanoma,14.9 µM
same,TGI,UACC-62 melanoma,37.6 µM
same,GI50,MDA-MB-435,1.4 µM
same,TGI,MDA-MB-435,2.76 µM
same,GI50,LOX IMVI melanoma,1.05 µM
same,TGI,LOX IMVI melanoma,2.31 µM
same,GI50,UO-31 renal,3.66 µM
same,TGI,UO-31 renal,21.4 µM
same,GI50,T-47D breast,19 µM
same,TGI,T-47D breast,39.2 µM
same,GI50,SK-OV-3 ovarian,3.71 µM
same,TGI,SK-OV-3 ovarian,20.1 µM
same,GI50,RPMI-8226 leukemia,1.46 µM
same,TGI,RPMI-8226 leukemia,4.15 µM
same,GI50,SF-268 CNS,12.6 µM
same,TGI,SF-268 CNS,68.4 µM
same,GI50,UACC-257 melanoma,31.7 µM
same,TGI,UACC-257 melanoma,> 76.3 µM
same,GI50,SNB-75 CNS,16.2 µM
same,TGI,SNB-75 CNS,44.6 µM
same,GI50,K-562 leukemia,0.238 µM
same,TGI,K-562 leukemia,12.1 µM
same,GI50,HCT-116 colon,0.37 µM
same,TGI,HCT-116 colon,2.65 µM
same,GI50,BT-549 breast,21.6 µM
same,TGI,BT-549 breast,47.1 µM
same,GI50,M14 melanoma,3.11 µM
same,TGI,M14 melanoma,11.7 µM
same,GI50,786-0 renal,2.53 µM
same,TGI,786-0 renal,8.65 µM
same,TGI,MOLT-4 leukemia,1.72 µM
same,GI50,HCT-15 colon,3.62 µM
same,TGI,HCT-15 colon,8.55 µM
same,GI50,ACHN renal,2.6 µM
same,TGI,ACHN renal,8.04 µM
same,GI50,MDA-MB-231 breast,1.41 µM
same,TGI,MDA-MB-231 breast,3.09 µM
same,GI50,HOP-92 NSCLC,1.1 µM
same,GI50,CAKI-1 renal,0.612 µM
same,TGI,CAKI-1 renal,2.05 µM
same,GI50,HOP-62 NSCLC,1.11 µM
same,TGI,HOP-62 NSCLC,2.43 µM
same,GI50,PC-3 prostate,1.21 µM
same,TGI,PC-3 prostate,3.41 µM
same,GI50,RXF 393 renal,5.28 µM
same,TGI,RXF 393 renal,84.3 µM
same,GI50,NCI-H226 lung,16.3 µM
same,TGI,NCI-H226 lung,41.4 µM
same,GI50,SNB-19 CNS,2.92 µM
same,TGI,SNB-19 CNS,12.4 µM
same,GI50,SK-MEL-5 melanoma,11.9 µM
same,TGI,SK-MEL-5 melanoma,31.5 µM
same,GI50,OVCAR-4 ovarian,16.3 µM
same,TGI,OVCAR-4 ovarian,55.7 µM
same,GI50,NCI/ADR-RES ovarian,2.08 µM
same,TGI,NCI/ADR-RES ovarian,6.4 µM
same,GI50,SF-295 CNS,2.05 µM
same,TGI,SF-295 CNS,3.62 µM
same,GI50,OVCAR-8 ovarian,17.6 µM
same,TGI,OVCAR-8 ovarian,> 100 µM
same,GI50,MALME-3M melanoma,2.78 µM
same,TGI,MALME-3M melanoma,7.14 µM
same,GI50,COLO 205 colon,2.05 µM
same,TGI,COLO 205 colon,9.56 µM
same,GI50,SN12C renal,1.06 µM
same,TGI,SN12C renal,15.5 µM
same,GI50,SW-620 colon,0.117 µM
same,TGI,SW-620 colon,0.399 µM
same,GI50,KM12 colon,0.672 µM
same,TGI,KM12 colon,2.32 µM
same,GI50,SK-MEL-28 melanoma,13 µM
same,TGI,SK-MEL-28 melanoma,34.2 µM
same,GI50,SK-MEL-2 melanoma,4.02 µM
same,TGI,SK-MEL-2 melanoma,18.6 µM
same,GI50,DU-145 prostate,0.714 µM
same,TGI,DU-145 prostate,7.21 µM
same,GI50,OVCAR-5 ovarian,2.01 µM
same,TGI,OVCAR-5 ovarian,3.78 µM
same,GI50,SF-539 CNS,1.94 µM
same,TGI,SF-539 CNS,3.61 µM
same,GI50,CCRF-CEM leukemia,0.141 µM
same,TGI,CCRF-CEM leukemia,1.56 µM
same,GI50,OVCAR-3 ovarian,1.01 µM
same,TGI,OVCAR-3 ovarian,2.22 µM
same,GI50,HS 578T breast,26.6 µM
same,TGI,HS 578T breast,77.5 µM
same,GI50,HT29 colon,12.5 µM
same,TGI,HT29 colon,38.3 µM
same,GI50,EKVX NSCLC,16.1 µM
same,TGI,EKVX NSCLC,33.1 µM
same,GI50,IGROV1 ovarian,1.33 µM
same,TGI,IGROV1 ovarian,3.84 µM
same,GI50,A549 NSCLC,6.31 µM
same,TGI,A549 NSCLC,47.4 µM
same,GI50,TK-10 renal,0.266 µM
same,TGI,TK-10 renal,1.19 µM
c1ccc(N2N=C(c3cccc(Nc4ccncc4)c3)CC2c2ccc3c(c2)OCO3)cc1 (stereo not given),GI50,MCF7 breast,1.74 µM
same,TGI,MCF7 breast,4.25 µM
same,GI50,A498 renal,1.24 µM
same,TGI,A498 renal,5.58 µM
same,GI50,HCC-2998 colon,1.84 µM
same,TGI,HCC-2998 colon,3.36 µM
same,GI50,NCI-H460 lung,1.71 µM
same,TGI,NCI-H460 lung,3.18 µM
same,GI50,U251 CNS,1.81 µM
same,TGI,U251 CNS,3.74 µM
same,GI50,UACC-62 melanoma,1.73 µM
same,TGI,UACC-62 melanoma,3.24 µM
same,GI50,MDA-MB-435,0.383 µM
same,TGI,MDA-MB-435,1.47 µM
same,GI50,LOX IMVI melanoma,1.69 µM
same,TGI,LOX IMVI melanoma,3.08 µM
same,GI50,UO-31 renal,1.4 µM
same,TGI,UO-31 renal,2.84 µM
same,GI50,T-47D breast,2.1 µM
same,TGI,T-47D breast,5.12 µM
same,GI50,SK-OV-3 ovarian,2.73 µM
same,TGI,SK-OV-3 ovarian,10.2 µM
same,GI50,SF-268 CNS,1.79 µM
same,TGI,SF-268 CNS,3.75 µM
same,GI50,UACC-257 melanoma,2 µM
same,TGI,UACC-257 melanoma,4.09 µM
same,GI50,SR leukemia,0.955 µM
same,TGI,SR leukemia,2.89 µM
same,GI50,SNB-75 CNS,1.47 µM
same,TGI,SNB-75 CNS,3.74 µM
same,GI50,BT-549 breast,1.83 µM
same,TGI,BT-549 breast,4.06 µM
same,GI50,M14 melanoma,1.63 µM
same,TGI,M14 melanoma,3.48 µM
same,GI50,HCT-15 colon,1.49 µM
same,TGI,HCT-15 colon,3.38 µM
same,GI50,ACHN renal,1.64 µM
same,TGI,ACHN renal,3.21 µM
same,GI50,HOP-92 NSCLC,1.1 µM
same,TGI,HOP-92 NSCLC,2.47 µM
same,GI50,CAKI-1 renal,1.3 µM
same,TGI,CAKI-1 renal,2.69 µM
same,GI50,NCI-H522 lung,1.61 µM
same,TGI,NCI-H522 lung,3.48 µM
same,GI50,RXF 393 renal,1.61 µM
same,TGI,RXF 393 renal,3.06 µM
same,GI50,NCI-H226 lung,2.07 µM
same,TGI,NCI-H226 lung,5.05 µM
same,GI50,SNB-19 CNS,2.2 µM
same,TGI,SNB-19 CNS,6.67 µM
same,GI50,NCI-H23 lung,1.94 µM
same,TGI,NCI-H23 lung,4.04 µM
same,GI50,SK-MEL-5 melanoma,1.77 µM
same,TGI,SK-MEL-5 melanoma,3.17 µM
same,GI50,OVCAR-4 ovarian,1.53 µM
same,TGI,OVCAR-4 ovarian,3.89 µM
same,GI50,NCI/ADR-RES ovarian,1.66 µM
same,TGI,NCI/ADR-RES ovarian,3.6 µM
same,GI50,SF-295 CNS,1.87 µM
same,TGI,SF-295 CNS,3.51 µM
same,GI50,MALME-3M melanoma,1.57 µM
same,TGI,MALME-3M melanoma,3.06 µM
same,GI50,COLO 205 colon,1.8 µM
same,TGI,COLO 205 colon,3.84 µM
same,GI50,SN12C renal,1.71 µM
same,TGI,SN12C renal,3.25 µM
same,GI50,SW-620 colon,1.18 µM
same,TGI,SW-620 colon,2.54 µM
same,GI50,KM12 colon,1.51 µM
same,TGI,KM12 colon,3.18 µM
same,GI50,SK-MEL-28 melanoma,1.66 µM
same,TGI,SK-MEL-28 melanoma,3.14 µM
same,GI50,SK-MEL-2 melanoma,2.02 µM
same,TGI,SK-MEL-2 melanoma,4.01 µM
same,GI50,DU-145 prostate,1.85 µM
same,TGI,DU-145 prostate,3.66 µM
same,GI50,OVCAR-5 ovarian,2.06 µM
same,TGI,OVCAR-5 ovarian,4.85 µM
same,GI50,SF-539 CNS,1.7 µM
same,TGI,SF-539 CNS,3.18 µM
same,GI50,CCRF-CEM leukemia,1.78 µM
same,TGI,CCRF-CEM leukemia,7.85 µM
same,GI50,HL-60(TB) leukemia,1.77 µM
same,TGI,HL-60(TB) leukemia,3.69 µM
same,GI50,OVCAR-3 ovarian,1.48 µM
same,TGI,OVCAR-3 ovarian,2.92 µM
same,GI50,HS 578T breast,1.55 µM
same,TGI,HS 578T breast,3.42 µM
same,GI50,EKVX NSCLC,2.66 µM
same,TGI,EKVX NSCLC,11 µM
same,GI50,IGROV1 ovarian,1.7 µM
same,TGI,IGROV1 ovarian,3.6 µM
same,GI50,TK-10 renal,1.94 µM
same,TGI,TK-10 renal,3.99 µM
